# Test results published in EP0908457B1, “3-(1,2-benzisothiazol- and isoxazol-5-Y1)-2,4(1H,3H)-pyrimidinedione or thione and 3-(1,2-benzisothiazol- and isoxazol-5-y1)-4(3H)-pyrimidinone or thione herbicidal agents” (BASF AKTIENGESELLSCHAFT, priority 1997, dated 1999).
# Tests used:
# [1] = test system: Echinochloa oryzoides (Ard.) Fritsch.; experiment: Preemergence weed control under flooded paddy conditions, ECHORC (Watergrass (Calif.)); type: in vivo; conditions: preemergence, flooded paddy, rated three to four weeks after treatment
# Cyperus iria = experiment: Preemergence weed control under flooded paddy conditions, CYPIR (Rice Flatsedge); type: in vivo; conditions: preemergence, flooded paddy, rated three to four weeks after treatment
# [2] = test system: Cyperus serotinus, Rottb.; experiment: Preemergence weed control under flooded paddy conditions, CYPSE (Flatsedge); type: in vivo; conditions: preemergence, rated three to four weeks after treatment
# [3] = test system: Monochoria vaginalis, Presl.; experiment: Preemergence weed control under flooded paddy conditions, MOOVA (Monochoria); type: in vivo; conditions: preemergence, flooded paddy, rated three to four weeks after treatment
# Sagittaria pygmaea, L. = experiment: Preemergence weed control under flooded paddy conditions, SAGPY (Arrowhead (Pygmaea)); type: in vivo; conditions: preemergence, flooded paddy, rated three to four weeks after treatment
# [4] = test system: Oryza sativa, (L.) Tebonnet; experiment: Rice tolerance to post-transplant applications under flooded paddy conditions (Example 187), ORYSAT (Rice, Tebonnet); conditions: rated three to four weeks after treatment
smiles,measurement,setting,value
"Cn1c(C(F)(F)F)cc(=O)n(-c2ccc3snc(C(=O)NS(=O)(=O)Cc4ccc(Cl)cc4)c3c2)c1=O [Example 468, 1,2-Benzisothiazole-3-carboxamide, N-[(p-chlorobenzyl)sulfonyl]-5-[3,6-dihydro-3-methyl-2,6-dioxo-4-(trifluoromethyl)-1(2H)-pyrimidinyl]-]",ECHORC herbicidal rating,[1]; 0.0320 kg/ha,7.0
same,ECHORC herbicidal rating,[1]; 0.0620 kg/ha,7.0
same,ECHORC herbicidal rating,[1]; 0.1250 kg/ha,9.0
same,ECHORC herbicidal rating,[1]; 0.2500 kg/ha,9.0
same,CYPIR herbicidal rating,Cyperus iria; 0.0320 kg/ha,5.0
same,CYPIR herbicidal rating,Cyperus iria; 0.0620 kg/ha,6.0
same,CYPIR herbicidal rating,Cyperus iria; 0.1250 kg/ha,6.0
same,CYPIR herbicidal rating,Cyperus iria; 0.2500 kg/ha,5.0
same,CYPSE herbicidal rating,[2]; 0.0320 kg/ha,2.0
same,CYPSE herbicidal rating,[2]; 0.0620 kg/ha,6.0
same,CYPSE herbicidal rating,[2]; 0.1250 kg/ha,7.0
same,CYPSE herbicidal rating,[2]; 0.2500 kg/ha,5.0
same,MOOVA herbicidal rating,[3]; 0.0320 kg/ha,5.0
same,MOOVA herbicidal rating,[3]; 0.0620 kg/ha,6.0
same,MOOVA herbicidal rating,[3]; 0.1250 kg/ha,7.0
same,MOOVA herbicidal rating,[3]; 0.2500 kg/ha,5.0
same,SAGPY herbicidal rating,"Sagittaria pygmaea, L.; 0.0320 kg/ha",3.0
same,SAGPY herbicidal rating,"Sagittaria pygmaea, L.; 0.0620 kg/ha",4.0
same,SAGPY herbicidal rating,"Sagittaria pygmaea, L.; 0.1250 kg/ha",4.0
same,SAGPY herbicidal rating,"Sagittaria pygmaea, L.; 0.2500 kg/ha",5.0
same,ORYSAT herbicidal rating (rice tolerance),[4]; 0.0320 kg/ha,3.0
same,ORYSAT herbicidal rating (rice tolerance),[4]; 0.0620 kg/ha,3.0
same,ORYSAT herbicidal rating (rice tolerance),[4]; 0.1250 kg/ha,5.0
same,ORYSAT herbicidal rating (rice tolerance),[4]; 0.2500 kg/ha,5.0
"Cc1nsc2ccc(-n3c(=O)cc(C(F)(F)F)n(CC#N)c3=O)cc12 [Example 213, 3,4-Dihydro-3-(3-methyl-1,2-benzisothiazol-5-yl)-2,4-dioxo-6-(trifluoromethyl)-1(2H)-pyrimidineacetonitrile]",ECHORC herbicidal effect rating,[1]; Rate 0.0313 kg/ha,0.0
same,ECHORC herbicidal effect rating,[1]; Rate 0.0625 kg/ha,0.0
same,ECHORC herbicidal effect rating,[1]; Rate 0.1250 kg/ha,0.0
same,ECHORC herbicidal effect rating,[1]; Rate 0.2500 kg/ha,0.0
same,CYPIR herbicidal effect rating,Cyperus iria; Rate 0.0313 kg/ha,0.0
same,CYPIR herbicidal effect rating,Cyperus iria; Rate 0.0625 kg/ha,0.0
same,CYPIR herbicidal effect rating,Cyperus iria; Rate 0.1250 kg/ha,0.0
same,CYPSE herbicidal effect rating,[2]; Rate 0.0313 kg/ha,0.0
same,CYPSE herbicidal effect rating,[2]; Rate 0.0625 kg/ha,0.0
same,CYPSE herbicidal effect rating,[2]; Rate 0.1250 kg/ha,0.0
same,CYPSE herbicidal effect rating,[2]; Rate 0.2500 kg/ha,0.0
same,MOOVA herbicidal effect rating,[3]; Rate 0.0313 kg/ha,0.0
same,MOOVA herbicidal effect rating,[3]; Rate 0.0625 kg/ha,0.0
same,MOOVA herbicidal effect rating,[3]; Rate 0.1250 kg/ha,0.0
same,MOOVA herbicidal effect rating,[3]; Rate 0.2500 kg/ha,2.0
same,SAGPY herbicidal effect rating,"Sagittaria pygmaea, L.; Rate 0.0313 kg/ha",0.0
same,SAGPY herbicidal effect rating,"Sagittaria pygmaea, L.; Rate 0.0625 kg/ha",0.0
same,SAGPY herbicidal effect rating,"Sagittaria pygmaea, L.; Rate 0.1250 kg/ha",0.0
same,SAGPY herbicidal effect rating,"Sagittaria pygmaea, L.; Rate 0.2500 kg/ha",0.0
same,ORYSAT herbicidal effect rating,[4]; Rate 0.0313 kg/ha,3.0
same,ORYSAT herbicidal effect rating,[4]; Rate 0.0625 kg/ha,4.0
same,ORYSAT herbicidal effect rating,[4]; Rate 0.1250 kg/ha,6.0
same,ORYSAT herbicidal effect rating,[4]; Rate 0.2500 kg/ha,7.0
